Experiments:
[1] = target: T1, human vasopressin V1a receptor (Homo sapiens, UniProt P37288); assay: Human vasopressin V1a receptor binding assay; settings: 1321N1 cell membranes, [3H]vasopressin; read-out: Ki (nM) on hV1a cell line
Outline: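 Radioligand competition on membranes from cells expressing human V1a receptor; incubation 60 minutes at 27° C., non-specific binding with 1.2×10^−6 M unlabeled (Arg^8)-vasopressin, filtration separation. Ki by Cheng-Prusoff using Scatchard-derived KD, from at least two independent experiments.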

[2] = target: T1, human vasopressin V1a receptor; assay: Functional assay on human vasopressin V1a receptor expressing cell line (intracellular Ca2+ fluorescence); assay type: cell-based; settings: 1321N1 cells, (Arg8)-vasopressin at EC80; read-out: IC50 (nM) on hV1a cell line
[3] = target: mouse vasopressin V1a receptor (Mus musculus, UniProt Q62463); assay: Mouse vasopressin V1a receptor binding assay; settings: 1321N1 cell membranes; read-out: Ki (nM) on mV1a cell line
mouse vasopressin V1a receptor, sequence (Q62463 whole entry): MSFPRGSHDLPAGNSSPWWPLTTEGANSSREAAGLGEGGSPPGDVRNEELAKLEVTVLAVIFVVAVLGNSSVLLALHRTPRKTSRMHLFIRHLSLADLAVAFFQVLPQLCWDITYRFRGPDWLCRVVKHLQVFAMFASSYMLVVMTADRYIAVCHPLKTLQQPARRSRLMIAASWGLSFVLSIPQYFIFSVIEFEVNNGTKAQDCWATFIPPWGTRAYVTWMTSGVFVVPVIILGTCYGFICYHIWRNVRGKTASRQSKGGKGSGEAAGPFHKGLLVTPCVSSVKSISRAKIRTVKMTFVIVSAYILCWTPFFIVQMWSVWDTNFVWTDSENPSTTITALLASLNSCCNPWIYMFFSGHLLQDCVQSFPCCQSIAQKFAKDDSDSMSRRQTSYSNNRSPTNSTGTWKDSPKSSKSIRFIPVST
Description: Mouse Vasopressin V1a Receptor Binding Assay Cells and Radioligand
The immortalized 1321N1 cell line (B9/1321N1 clone) constitutively and stably expressing Mouse vasopressin V1a receptor vasopressin (8-L-Arginine), [Phenylalanyl-3,4,5-^3H(N)] labelled compound (Perkin Elmer Life and Analytical Sciences) as radioligand were used to determine the affinity of the prepared compounds.
Membrane-preparation: Membrane preparation of immortalized 1321N1 cells expressing the propagated mouse Vasopressin V1a receptor was made according to Jarvis's method (Jarvis et al., J Pharmacol Exp Ther […], 310:407-16). Cells were suspended in preparative buffer (50 mM Tris, 1 mM EDTA, 0.1 mM PMSF) and homogenized with glass homogenizing potter. To separate the raw membrane fraction two consecutive centrifugation procedures (40,000 g for 25 minutes at 4° C.) were executed, then the membrane was taken into the preparatory buffer during a final washing step, it was divided into aliquots which were stored at −80° C. until the time of measurement.
The protein content of the prepared membrane was determined according to Lowry's method using standard dilution line of bovine serum albumin (BSA) (Lowry et al., J Biol Chem 1951, 193:265-75).
To determine the final affinity value, the results of at least two independent experiments were taken into account.
Non-specific binding values were determined in the presence of an unlabeled 1.2×10^−6 M (Arg^8)-vasopressin. Samples were incubated in a total volume of 0.33 ml for 60 minutes at 27° C. Membrane-bound and free ligands were separated by filtration through a 0.5% polyethyleneimine-impregnated UniFilter® GF/B™ After drying the filter plates, 40 μl Microscint-20 (Packard) scintillation cocktail was added to the samples. Finally, radioactivity was measured using MicroBeta^2 Microplate Counter (Perkin Elmer).
The radioligand clamping ability of a substance is determined in at least two independent experiments. Specific radioligand binding can be defined as the difference between total and non-specific binding in the presence of a saturation amount of the unlabeled ligand or different concentrations of the substance to be tested. The results are given as a percentage of inhibition of the specific binding achieved in the presence of the substance to be tested.
The IC50 data (i.e. the concentration of the unknown substance which displaces 50% of specific bound radioligand) is calculated from the concentration-displacement curve using the sigmoid fitting mathematical method y=(A1−A2)/(1+(x/x0)p)+A2 with Origin 7.5. software (OriginLab Corporation, Northampton, USA). During fitting, the asymptotes are not fixed. The Ki values (inhibition constant) are given with Cheng-Prusoff equation Ki=IC50/[1+(L/KD)] wherein [L] is the radioligand concentration used in the experiment and [KD] is the affinity of the radioactively labelled ligand for the given receptor. The KD is determined beforehand using the Scatchard curve.

[4] = test system: Prenatally valproate-treated rats; assay: Prenatal valproate model of ASD, social approach avoidance paradigm; assay type: in vivo, rat; settings: VPA rats; for social approach avoidance active contact time: mean ± S.E.M.; for social approach avoidance % effect: VEH/VEH = 100%, VPA/VEH = 0%
Description: (§1) The Prenatal Valproate Model of Autism Spectrum Disorder (ASD) in Rats
(§2) The prenatal valproate model has excellent construct and face validity, thus it is a widely accepted animal model of ASD (Christensen et al, JAMA 2013, 309:1696-1703; Roullet et al, Neurotoxicol Teratol. 2013, 36:45-56). In this model, time-mated female Wistar rats (Harlan, UK) were treated with single-dose of valproic acid (VPA, i.p. 600 mg/kg) on 12.5 days of pregnancy. After birth and separation, the examined male offsprings were kept under standard laboratory conditions until completion of the studies. Four animals were kept together in standard cages at 22-24° C. external temperature and in 12-12 hour light-dark cycle (07.30 a.m.-07.30 p.m.). Food and water were available ad libitum. After once daily treatment with the test substance for 7 days and pretreatment on the day of measurement, the behaviour of the rats was assessed in the social preference test on the 59th or 60th postnatal day. The social preference test is a largely accepted test method for determining the autistic behaviour of rodents (Nadler et al, Genes Brain Behav 2004, 3:303-314; Bambini-Junior et al, Brain Res 2011, 1408:8-16). The test consists of two paradigms, the first is the social approach avoidance test. In this paradigm the social behaviour of examined animals can be determined with a special three-chamber apparatus. In the apparatus, the contact behaviour of the conspecific and empty separated area surrounded with a perforated wall can be examined and compared. […] One day later, on the 60th postnatal day, rats were tested in the social memory and recognition paradigm. In this, the contact behaviour with a new, previously unknown conspecific can be measured compared to a familiar conspecific.

[5] = test system: Prenatally valproate-treated rats; assay: Prenatal valproate model of ASD, social memory recognition paradigm; assay type: in vivo, rat; settings: VPA rats; for social memory recognition active novelty contact time: mean ± S.E.M.; for social memory recognition % effect: VEH/VEH = 100%, VPA/VEH = 0%
Description: as §1, §2
Unexpectedly, the treatment reversed the value of VPA/VEH to the value of VEH/VEH treated animals.

V1aR [6] = target: T2, V1aR (Homo sapiens, UniProt P37288); settings: cited from earlier work
Target sequence in this assay (P37288 whole entry, species assumed): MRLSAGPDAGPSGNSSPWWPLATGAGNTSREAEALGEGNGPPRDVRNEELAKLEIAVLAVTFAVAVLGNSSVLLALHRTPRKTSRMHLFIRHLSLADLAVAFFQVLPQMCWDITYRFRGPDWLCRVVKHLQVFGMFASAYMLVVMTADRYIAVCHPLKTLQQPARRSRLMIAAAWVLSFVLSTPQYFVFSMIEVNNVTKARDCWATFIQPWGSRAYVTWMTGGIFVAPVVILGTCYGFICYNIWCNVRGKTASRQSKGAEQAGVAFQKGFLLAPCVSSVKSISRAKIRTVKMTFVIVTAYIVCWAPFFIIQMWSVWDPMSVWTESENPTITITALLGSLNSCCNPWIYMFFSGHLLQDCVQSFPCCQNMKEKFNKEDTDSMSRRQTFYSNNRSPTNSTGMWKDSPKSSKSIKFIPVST

V1aR [7] = target: T2, V1aR; settings: humans, Phase 1; cited from earlier work
Target sequence in this assay (P37288 whole entry): as the sequence (P37288 whole entry, species assumed) above

human V1a receptor = human V1a receptor (Homo sapiens, UniProt P37288); settings: cited from earlier work
human V1a receptor, sequence (P37288 whole entry): as the sequence (P37288 whole entry, species assumed) above

[8] = rats; cited from earlier work

T1 sequence (P37288 whole entry): as the sequence (P37288 whole entry, species assumed) above

For `CC(C)N[C@@H]1Cc2cc(Cl)ccc2-n2c(nnc2[C@H]2CC[C@H](Oc3ccccn3)CC2)C1` [Example 26], the Ki [1] was 0.7 nM, the IC50 [2] was 4.5 nM and the Ki [3] was 15 nM. The “social approach avoidance active contact time” value ([4]; 1.5 mg/kg i.p.) was 71.2 ± 15.9 s, the “social approach avoidance % effect” value ([4]; 1.5 mg/kg i.p.) was 30% and the “social approach avoidance active contact time” value ([4]; 5 mg/kg i.p.) was 116.4 ± 22.5 s. For the same compound, the “social approach avoidance % effect” value ([4]; 5 mg/kg i.p.) was 75%, the “social approach avoidance active contact time” value ([4]; 15 mg/kg i.p.) was 148.7 ± 8.3 s and the “social approach avoidance % effect” value ([4]; 15 mg/kg i.p.) was 107%. For the same compound, the “social memory recognition active novelty contact time” value ([5]; 1.5 mg/kg i.p.) was 83.7 ± 11.8 s, the “social memory recognition % effect” value ([5]; 1.5 mg/kg i.p.) was 66% and the “social memory recognition active novelty contact time” value ([5]; 5 mg/kg i.p.) was 133.5 ± 10.0 s. For the same compound, the “social memory recognition % effect” value ([5]; 5 mg/kg i.p.) was 115%, the “social memory recognition active novelty contact time” value ([5]; 15 mg/kg i.p.) was 141.9 ± 9.1 s and the “social memory recognition % effect” value ([5]; 15 mg/kg i.p.) was 124%.
In the case of `CN1Cc2cc(Cl)ccc2-n2c(nnc2C2CCN(c3ccccn3)CC2)C1` [PF-184563], the V1aR antagonism (V1aR [6]) is listed as “efficient V1aR antagonists”.
In the case of `CN(C)CCn1cc(C(=O)N2CCC3(CC2)OCc2ccccc23)c2ccc(Cl)cc21` [RO5028442], the “orientation of eye-gaze pattern” value (V1aR [7]) is given as “positive effect”.
For `CN(Cc1cccc(C(F)(F)F)c1)C(=O)[C@@H](CC(=O)N1CCC(N2CCCCC2)CC1)N1C(=O)[C@@H](N2C(=O)OC[C@@H]2c2ccccc2)[C@H]1/C=C/c1ccccc1` [SRX-251], the “activity on the human V1a receptor” value (human V1a receptor) is listed as “active” and the “brain level relative to effective concentrations detected in the binding assay” value [8] is listed as “approximately 100 fold”.
